{
  "source": "patent US10800792B2",
  "about": "“Inhibitors of Bruton's tyrosine kinase and method of their use” (JANSSEN PHARMACEUTICA NV, priority 2015, dated 2020)",
  "biological_target": "unphosphorylated-BTK kinase domain (UP-BTK), GST-tagged human BTK (389-659aa) (Homo sapiens (Human), UniProt Q06187)",
  "sequence (Q06187 389-659)": "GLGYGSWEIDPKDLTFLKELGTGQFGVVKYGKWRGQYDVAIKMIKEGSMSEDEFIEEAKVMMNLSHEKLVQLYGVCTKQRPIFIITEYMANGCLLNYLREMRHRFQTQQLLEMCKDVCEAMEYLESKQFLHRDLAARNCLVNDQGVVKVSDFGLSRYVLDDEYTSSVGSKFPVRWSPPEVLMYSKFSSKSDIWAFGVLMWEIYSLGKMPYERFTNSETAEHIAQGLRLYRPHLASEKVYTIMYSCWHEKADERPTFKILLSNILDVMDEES",
  "test": "BTK kinase Lanthascreen binding assay",
  "details": "pIC50 = negative log of the IC50 in molar; 60 minutes incubation, 50 nM Tracer 236",
  "in_short": "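Measures how well compounds compete with a fluorescence-labelled tracer for binding to BTK in its unphosphorylated state. IC50 values were fitted and expressed as pIC50 (negative logarithm of the molar IC50).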",
  "data": [
    {"smiles": "CO[C@H]1CNC[C@@H]1NC(=O)c1sc2nccc3c2c1NC(=O)N3c1ccc(Oc2ccccc2)cc1C", "note": "[Example 245, N-((3S,4S)-4-Methoxypyrrolidin-3-yl)-5-(2-methyl-4-phenoxyphenyl)-4-oxo-4,5-dihydro-3H-1-thia-3,5,8-triazaacenaphthylene-2-carboxamide]", "values": [
      {"measurement": "BTK_I_binding pIC50", "result": 6.6}
    ]},
    {"smiles": "COCCC(=O)N1CC(NC(=O)c2sc3nccc4c3c2NC(=O)N4c2ccc(Oc3ccccc3)cc2C)C1", "note": "[Example 246, N-(1-(3-Methoxypropanoyl)azetidin-3-yl)-5-(2-methyl-4-phenoxyphenyl)-4-oxo-4,5-dihydro-3H-1-thia-3,5,8-triazaacenaphthylene-2-carboxamide]", "values": [
      {"measurement": "BTK_I_binding pIC50", "result": 6.5}
    ]},
    {"smiles": "Cc1cc(Oc2ccccc2)ccc1N1C(=O)Nc2c(C(=O)N[C@@H]3CCCN(C(=O)/C=C/C(C)C)C3)sc3nccc1c23", "note": "[Example 247, (R,E)-5-(2-Methyl-4-phenoxyphenyl)-N-(1-(4-methylpent-2-enoyl)piperidin-3-yl)-4-oxo-4,5-dihydro-3H-1-thia-3,5,8-triazaacenaphthylene-2-carboxamide]", "values": [
      {"measurement": "BTK_I_binding pIC50", "result": 6.5}
    ]},
    {"smiles": "Cc1cc(Oc2ccccc2)ccc1N1C(=O)Nc2c(C(=O)NC3CN(C)C3)sc3nccc1c23", "note": "[Example 248, 5-(2-Methyl-4-phenoxyphenyl)-N-(1-methylazetidin-3-yl)-4-oxo-4,5-dihydro-3H-1-thia-3,5,8-triazaacenaphthylene-2-carboxamide]", "values": [
      {"measurement": "BTK_I_binding pIC50", "result": 6.5}
    ]},
    {"smiles": "Cc1cc(OC2CCCCC2)ccc1N1C(=O)Nc2c(C(=O)N[C@@H]3CCCN(C)C3)sc3nccc1c23", "note": "[Example 250, (R)-5-(4-(Cyclohexyloxy)-2-methylphenyl)-N-(1-methylpiperidin-3-yl)-4-oxo-4,5-dihydro-3H-1-thia-3,5,8-triazaacenaphthylene-2-carboxamide]", "values": [
      {"measurement": "BTK_I_binding pIC50", "result": 6.4}
    ]},
    {"smiles": "CCN1CC(NC(=O)c2sc3nccc4c3c2NC(=O)N4c2ccc(Oc3ccccc3)cc2C)C1", "note": "[Example 251, N-(1-Ethylazetidin-3-yl)-5-(2-methyl-4-phenoxyphenyl)-4-oxo-4,5-dihydro-3H-1-thia-3,5,8-triazaacenaphthylene-2-carboxamide]", "values": [
      {"measurement": "BTK_I_binding pIC50", "result": 6.4}
    ]},
    {"smiles": "Cc1cc(Oc2ccccc2)ccc1N1C(=O)Nc2c(C(=O)NC3CNC3)sc3nccc1c23", "note": "[Example 252, N-(azetidin-3-yl)-5-(2-methyl-4-phenoxyphenyl)-4-oxo-4,5-dihydro-3H-1-thia-3,5,8-triazaacenaphthylene-2-carboxamide]", "values": [
      {"measurement": "BTK_I_binding pIC50", "result": 6.4}
    ]},
    {"smiles": "C=CC(=O)N1CCC[C@@H](NC(=O)c2sc3nccc4c3c2NC(=O)N4c2ccc(OC)cc2)C1", "note": "[Example 254]", "values": [
      {"measurement": "BTK_I_binding pIC50", "result": 6.6}
    ]},
    {"smiles": "C=CC(=O)N1CCC[C@@H](NC(=O)c2sc3nccc4c3c2NC(=O)N4c2ccc(F)cc2)C1", "note": "[Example 255, (R)—N-(1-Acryloylpiperidin-3-yl)-5-(4-fluorophenyl)-4-oxo-4,5-dihydro-3H-1-thia-3,5,8-triazaacenaphthylene-2-carboxamide]", "values": [
      {"measurement": "BTK_I_binding pIC50", "result": 6.6}
    ]},
    {"smiles": "C=CC(=O)N1CCC[C@@H](NC(=O)c2sc3nccc4c3c2NC(=O)N4c2ccc(Cl)cc2)C1", "note": "[Example 256, (R)—N-(1-Acryloylpiperidin-3-yl)-5-(4-chlorophenyl)-4-oxo-4,5-dihydro-3H-1-thia-3,5,8-triazaacenaphthylene-2-carboxamide]", "values": [
      {"measurement": "BTK_I_binding pIC50", "result": 6.6}
    ]},
    {"smiles": "C=CC(=O)N1CCC[C@@H](NC(=O)c2sc3nccc4c3c2NC(=O)N4c2ccccc2)C1", "note": "[Example 257, (R)—N-(1-Acryloylpiperidin-3-yl)-4-oxo-5-phenyl-4,5-dihydro-3H-1-thia-3,5,8-triazaacenaphthylene-2-carboxamide]", "values": [
      {"measurement": "BTK_I_binding pIC50", "result": 6.4}
    ]},
    {"smiles": "Cc1cc(Oc2ccccc2)ccc1N1C(=O)Nc2c(C(=O)NC3CCNC(C)C3)sc3nccc1c23", "note": "(stereo not drawn) [Example 258, 5-(2-methyl-4-phenoxyphenyl)-N-(2-methylpiperidin-4-yl)-4-oxo-4,5-dihydro-3H-1-thia-3,5,8-triazaacenaphthylene-2-carboxamide]", "values": [
      {"measurement": "BTK_I_binding pIC50", "result": 6.5}
    ]},
    {"smiles": "CO[C@@H]1C[C@@H](NC(=O)c2sc3nccc4c3c2NC(=O)N4c2ccc(Oc3ccccc3)cc2)CN(C)C1", "note": "[Example 259, N-((3R,5R)-5-Methoxy-1-methylpiperidin-3-yl)-4-oxo-5-(4-phenoxyphenyl)-4,5-dihydro-3H-1-thia-3,5,8-triazaacenaphthylene-2-carboxamide]", "values": [
      {"measurement": "BTK_I_binding pIC50", "result": 6.5}
    ]},
    {"smiles": "CC(C)=C(Cl)C(=O)N1CCC[C@@H](NC(=O)c2sc3nccc4c3c2NC(=O)N4c2ccc(Oc3ccccc3)cc2C)C1", "note": "[Example 260, (R)—N-(1-(2-chloro-3-methylbut-2-enoyl)piperidin-3-yl)-5-(2-methyl-4-phenoxyphenyl)-4-oxo-4,5-dihydro-3H-1-thia-3,5,8-triazaacenaphthylene-2-carboxamide]", "values": [
      {"measurement": "BTK_I_binding pIC50", "result": 6.5}
    ]},
    {"smiles": "C/C=C(\\F)C(=O)N1CCC[C@@H](NC(=O)c2sc3nccc4c3c2NC(=O)N4c2ccc(Oc3ccccc3)cc2C)C1", "note": "[Example 261, (R,Z)—N-(1-(2-Fluorobut-2-enol)piperidin-3-yl)-5-(2-methyl-4-phenoxyphenyl)-4-oxo-4,5-dihydro-3H-1-thia-3,5,8-triazaacenaphthylene-2-carboxamide]", "values": [
      {"measurement": "BTK_I_binding pIC50", "result": 6.5}
    ]},
    {"smiles": "CC(C)=C(F)C(=O)N1CCC[C@@H](NC(=O)c2sc3nccc4c3c2NC(=O)N4c2ccc(Oc3ccccc3)cc2C)C1", "note": "[Example 263, (R)—N-(1-(2-Fluoro-3-methylbut-2-enoyl)piperidin-3-yl)-5-(2-methyl-4-phenoxyphenyl)-4-oxo-4,5-dihydro-3H-1-thia-3,5,8-triazaacenaphthylene-2-carboxamide]", "values": [
      {"measurement": "BTK_I_binding pIC50", "result": 6.4}
    ]},
    {"smiles": "C=CC(=O)N1CC[C@@H](NC(=O)c2sc3nccc4c3c2NC(=O)N4c2ccc(S(F)(F)(F)(F)F)cc2C)C1", "note": "[Example 264, (R)—N-(1-Acryloylpyrrolidin-3-yl)-5-(2-methyl-4-(pentafluorothio)phenyl)-4-oxo-4,5-dihydro-3H-1-thia-3,5,8-triazaacenaphthylene-2-carboxamide]", "values": [
      {"measurement": "BTK_I_binding pIC50", "result": 6.4}
    ]},
    {"smiles": "Cc1cc(Oc2ccccc2)ccc1N1C(=O)Nc2c(C(=O)NC[C@@H]3CCCN3C)sc3nccc1c23", "note": "[Example 265, (S)-5-(2-Methyl-4-phenoxyphenyl)-N-((1-methylpyrrolidin-2-yl)methyl)-4-oxo-4,5-dihydro-3H-1-thia-3,5,8-triazaacenaphthylene-2-carboxamide]", "values": [
      {"measurement": "BTK_I_binding pIC50", "result": 6.4}
    ]},
    {"smiles": "Cc1cc(Oc2ccccc2)ccc1N1C(=O)Nc2c(C(=O)N[C@@H]3C[C@H](O)CN(C)C3)sc3nccc1c23", "note": "[Example 266, N-((3R,5S)-5-Hydroxy-1-methylpiperidin-3-yl)-5-(2-methyl-4-phenoxyphenyl)-4-oxo-4,5-dihydro-3H-1-thia-3,5,8-triazaacenaphthylene-2-carboxamide]", "values": [
      {"measurement": "BTK_I_binding pIC50", "result": 6.3}
    ]},
    {"smiles": "CO[C@@H]1CNC[C@H](NC(=O)c2sc3nccc4c3c2NC(=O)N4c2ccc(Oc3ccccc3)cc2C)C1", "note": "[Example 268, N-((3R,5S)-5-Methoxypiperidin-3-yl)-5-(2-methyl-4-phenoxyphenyl)-4-oxo-4,5-dihydro-3H-1-thia-3,5,8-triazaacenaphthylene-2-carboxamide]", "values": [
      {"measurement": "BTK_I_binding pIC50", "result": 6.3}
    ]},
    {"smiles": "Cc1cc(Oc2ccccc2)ccc1N1C(=O)Nc2c(C(=O)NC[C@@H]3CCCN3)sc3nccc1c23", "note": "[Example 269, (S)-5-(2-Methyl-4-phenoxyphenyl)-4-oxo-N-(pyrrolidin-2-ylmethyl)-4,5-dihydro-3H-1-thia-3,5,8-triazaacenaphthylene-2-carboxamide]", "values": [
      {"measurement": "BTK_I_binding pIC50", "result": 6.3}
    ]},
    {"smiles": "C=CC(=O)N1CC[C@@H](NC(=O)c2sc3nccc4c3c2NC(=O)N4c2ccc(OC3CCOCC3)cc2C)C1", "note": "[Example 270, (R)—N-(1-Acryloylpyrrolidin-3-yl)-5-(2-methyl-4-((tetrahydro-2H-pyran-4-yl)oxy)phenyl)-4-oxo-4,5-dihydro-3H-1-thia-3,5,8-triazaacenaphthylene-2-carboxamide]", "values": [
      {"measurement": "BTK_I_binding pIC50", "result": 6.3}
    ]},
    {"smiles": "C=CC(=O)N1CCC[C@@H](NC(=O)c2sc3nccc4c3c2NC(=O)N4c2ccc(C)cc2)C1", "note": "[Example 271, (R)—N-(1-Acryloylpiperidin-3-yl)-4-oxo-5-(p-tolyl)-4,5-dihydro-3H-1-thia-3,5,8-triazaacenaphthylene-2-carboxamide]", "values": [
      {"measurement": "BTK_I_binding pIC50", "result": 6.3}
    ]},
    {"smiles": "Cc1cc(Oc2ccccc2)ccc1N1C(=O)Nc2c(C(=O)N[C@H]3CN(C)CC(F)(F)C3)sc3nccc1c23", "note": "[Example 272, (R)—N-(5,5-Difluoro-1-methylpiperidin-3-yl)-5-(2-methyl-4-phenoxyphenyl)-4-oxo-4,5-dihydro-3H-1-thia-3,5,8-triazaacenaphthylene-2-carboxamide]", "values": [
      {"measurement": "BTK_I_binding pIC50", "result": 6.3}
    ]},
    {"smiles": "Cc1cc(Oc2ccccc2)ccc1N1C(=O)Nc2c(C(=O)NC3CN(C(C)C)C3)sc3nccc1c23", "note": "[Example 273, N-(1-Isopropylazetidin-3-yl)-5-(2-methyl-4-phenoxyphenyl)-4-oxo-4,5-dihydro-3H-1-thia-3,5,8-triazaacenaphthylene-2-carboxamide]", "values": [
      {"measurement": "BTK_I_binding pIC50", "result": 6.3}
    ]},
    {"smiles": "Cc1cc(Oc2ccccc2)ccc1N1C(=O)Nc2c(C(=O)N[C@@H]3CCCN(C(=O)/C=C/C(C)(C)C)C3)sc3nccc1c23", "note": "[Example 274, (R,E)-N-(1-(4,4-Dimethylpent-2-enoyl)piperidin-3-yl)-5-(2-methyl-4-phenoxyphenyl)-4-oxo-4,5-dihydro-3H-1-thia-3,5,8-triazaacenaphthylene-2-carboxamide]", "values": [
      {"measurement": "BTK_I_binding pIC50", "result": 6.3}
    ]},
    {"smiles": "Cc1cc(Oc2ccccc2)ccc1N1C(=O)Nc2c(C(=O)NCCN3CCOCC3)sc3nccc1c23", "note": "[Example 275, 5-(2-Methyl-4-phenoxyphenyl)-N-(2-morpholinoethyl)-4-oxo-4,5-dihydro-3H-1-thia-3,5,8-triazaacenaphthylene-2-carboxamide]", "values": [
      {"measurement": "BTK_I_binding pIC50", "result": 6.3}
    ]}
  ]
}
